Activity calls are given as the source filed them. No rule for the calls is given here.
Each compound was assayed on StAR promoter luciferase reporter cells, luminescence inhibition (assay: nonselective StAR promoter luciferase inhibitors – cell-based, luminescence, dose response, counter-screen for LRH-1 inverse agonist project, late-stage follow-up (AID 651975)).

SMILES	IC50
CCCc1nnc(SCC(=O)Nc2ccc(C(=O)OCC)cc2)o1	> 35.9 µM (inactive)
COc1ccc(NC(=O)CSc2nc(N)c(-c3ccccc3)c(=O)[nH]2)cc1	> 35.9 µM (inactive)
COc1ccc(CCNC(=O)COC(=O)Cc2ccccc2[N+](=O)[O-])cc1	> 35.9 µM (inactive)
COC(=O)c1ccc(NC(=O)CSc2nn3c(=O)c(C)nnc3s2)cc1	> 35.9 µM (inactive)
O=C(COC(=O)c1ccc[n+]([O-])c1)Nc1ccc([N+](=O)[O-])cc1Cl	> 35.9 µM (inactive)
CCCc1cc(=O)oc2c(C)c(OCC(=O)NC3CC(C)(C)NC(C)(C)C3)ccc12	> 35.9 µM (inactive)
O=c1[nH]c(Nc2ccc3c(c2)OCCO3)nnc1Cc1ccccc1	> 35.9 µM (inactive)
CCOc1ccc(NC(=O)CSc2nnc(C(C)C)n2CC)cc1	> 35.9 µM (inactive)
CCn1c(SCC(=O)Nc2ccc(Cl)cc2)nnc1C1CC1	> 35.9 µM (inactive)
COc1ccc(CCNC(=O)CSc2nn3c(=O)c(C)nnc3s2)cc1OC	> 35.9 µM (inactive)
CCOc1ccc(NC(=O)COC(=O)c2ccc3c(c2)OCCO3)cc1	> 35.9 µM (inactive)
COc1ccccc1Oc1nnnn1-c1ccc(C(N)=O)cc1	> 35.9 µM (inactive)
Cc1ccn2c(=O)nc(SCC(=O)Nc3ccc4c(c3)OCCO4)nc2c1	> 35.9 µM (inactive)
NC(=O)C1CCN(C(=O)COc2ccc3c4c(c(=O)oc3c2)CCCC4)CC1	> 35.9 µM (inactive)
Cc1cc(OCC(=O)Nc2nccs2)c2c(C)cc(=O)oc2c1	> 35.9 µM (inactive)
O=C(CSc1nnc(CNC(=O)c2c(F)cccc2F)o1)Nc1ccc2c(c1)OCCO2	> 35.9 µM (inactive)
CC(=O)Nc1ccc(N=c2cc([N+](=O)[O-])cc(Cl)n2O)cc1	> 35.9 µM (inactive)
O=C(COc1ccc2c3c(c(=O)oc2c1)CCC3)NCc1ccncc1	> 35.9 µM (inactive)
O=C(CSc1nc(=O)n2cc(Cl)ccc2n1)Nc1ccc2c(c1)OCCO2	> 35.9 µM (inactive)
COc1ccc(NC(=O)CN2C(=O)NC3(CCCC3)C2=O)cc1	> 35.9 µM (inactive)
COc1ccc(CC(NC(C)=O)C(=O)NC2CCN(c3nnnn3-c3ccccc3)CC2)cc1 (stereo not given)	> 35.9 µM (inactive)
CCCc1cc(=O)oc2cc(OCC(=O)NCCc3ccc(S(N)(=O)=O)cc3)ccc12	> 35.9 µM (inactive)
Cc1cccc(NC(=O)COC(=O)CN2C(=O)c3ccccc3C2=O)c1C	> 35.9 µM (inactive)
Cc1cc(Br)ccc1NC(=O)CSc1nnc(CN2CCOCC2)n1C	> 35.9 µM (inactive)

SMILES	IC50
COC(=O)c1ccc(NC(=O)COc2cccc(-n3cnnn3)c2)cc1	> 35.9 µM (inactive)
Cc1cc(C)c2nc(NC(=O)c3ccc([N+](=O)[O-])o3)sc2c1	> 35.9 µM (inactive)
CCc1cc(=O)oc2c(C)c(OCC(=O)NCCN3CCOCC3)ccc12	> 35.9 µM (inactive)
CCOc1ccc(NC(=O)CSc2nc3[nH]ncc3c(=O)[nH]2)cc1	> 35.9 µM (inactive)
CCCc1cc(=O)oc2cc(C)cc(OCC(=O)NC3CC3)c12	> 35.9 µM (inactive)
O=C(Nc1ccc(S(=O)(=O)N2CCOCC2)cc1)c1cccc([N+](=O)[O-])c1	> 35.9 µM (inactive)
O=C(CN1C(=O)CCC1=O)Nc1ccc(Br)cc1	> 35.9 µM (inactive)
COc1ccc(CCNC(=O)COC(=O)C23CC4CC(CC(C4)C2)C3)cc1	> 35.9 µM (inactive)
O=C(NCC1CCCO1)c1ccc(NC(=O)c2cccc([N+](=O)[O-])c2)cc1 (stereo not given)	> 35.9 µM (inactive)
Cc1ccc2cccc(OCC(=O)NCCC3=CCCCC3)c2n1	> 35.9 µM (inactive)
O=C(NCc1ccco1)c1nn(-c2ccccc2)c(=O)c2ccccc12	> 35.9 µM (inactive)
COc1ccc(NC(=O)CSc2sc3c(O)cc(=O)[nH]c3c2C#N)c(OC)c1	> 35.9 µM (inactive)
CCCc1cc(=O)oc2c(C)c(OCC(=O)NCCCn3ccnc3)ccc12	> 35.9 µM (inactive)
Cc1ccc(NC(=O)COC(=O)C(NS(=O)(=O)c2ccc(Cl)cc2)C(C)O)c(Br)c1 (stereo not given)	> 35.9 µM (inactive)
CC(=O)c1ccc(NC(=O)C(C)O/N=C(\N)c2ccccc2)cc1 (stereo not given)	> 35.9 µM (inactive)
Cc1nn(CC(=O)Nc2ccc3c(c2)OCCO3)c(C)c1[N+](=O)[O-]	> 35.9 µM (inactive)
COC(=O)c1ccc(NC(=O)CSc2nncn2-c2cccnc2)cc1	> 35.9 µM (inactive)
Cc1ccc(NC(=O)CSc2sc3c(O)cc(=O)[nH]c3c2C#N)c(F)c1	> 35.9 µM (inactive)
CCc1cc(=O)[nH]c(SCC(=O)Nc2ccc3c(c2)OCCO3)n1	> 35.9 µM (inactive)
O=C(COC(=O)c1ccc(=O)n(Cc2ccccc2)n1)Nc1ccc2c(c1)OCCO2	> 35.9 µM (inactive)
CCOc1ccc(NC(=O)COC(=O)COc2cccc3c2OC(C)(C)C3)cc1	> 35.9 µM (inactive)
COC(=O)c1ccc(NC(=O)CSc2nc3ncccc3[nH]2)cc1	> 35.9 µM (inactive)
COc1ccc(NC(=O)CSc2nnc3ccc(-c4cccnc4)nn23)cc1OC	> 35.9 µM (inactive)
Cc1cc(Br)ccc1NC(=O)CN1C(=O)CCC1=O	> 35.9 µM (inactive)

SMILES	IC50
CCCN(CC(=O)Nc1ccc(C(C)=O)cc1)CC(=O)Nc1ccccc1C	> 35.9 µM (inactive)
Cc1ccc(NC(=O)COC(=O)c2cc(=O)c3ccccc3o2)c(Br)c1	> 35.9 µM (inactive)
COc1ccc(NC(=O)CSc2ccc3c(c2)OCCO3)cc1	> 35.9 µM (inactive)
O=C1CCCN2N=C(SCC(=O)Nc3ccc(Br)cc3)SC2=N1	> 35.9 µM (inactive)
Cc1ccc(NC(=O)CSc2nc3[nH]c(=O)cc(O)c3s2)c(Br)c1	> 35.9 µM (inactive)
COc1ccc(NC(=O)COC(=O)c2cc(S(=O)(=O)N3CCCC3)ccc2O)cc1	> 35.9 µM (inactive)
COc1ccc(C2(C)NC(=O)N(CC(=O)NCCC3=CCCCC3)C2=O)cc1OC (stereo not given)	> 35.9 µM (inactive)
O=C(COc1ccc2c3c(c(=O)oc2c1)CCCC3)NCc1ccccn1	> 35.9 µM (inactive)
COCCn1c(C)cc(/C=C(\C#N)C(=O)OCC(=O)Nc2ccc(S(N)(=O)=O)cc2)c1C	> 35.9 µM (inactive)
CCOc1ccc(NC(=O)CSc2nncc(=O)n2N)cc1	> 35.9 µM (inactive)
CC(=O)Nc1ccc(NC(=O)CSc2ccc(-c3ccco3)nn2)cc1	> 35.9 µM (inactive)
O=C(COC(=O)c1ccc(Br)cc1)Nc1ccccc1Br	> 35.9 µM (inactive)
O=C(OCC(=O)N1CCN(C(=O)COC(=O)c2ccc(O)cc2O)CC1)c1ccc(O)cc1O	> 35.9 µM (inactive)
COc1ccc(CCNC(=O)COC(=O)c2cccn2C)cc1	> 35.9 µM (inactive)
CC(=O)c1ccc(OC(C)C(=O)OCC(=O)NCCc2ccccc2)cc1 (stereo not given)	> 35.9 µM (inactive)
COC(=O)c1ccc(CNC(=O)COC(=O)c2cc(Cl)nc(Cl)c2)cc1	> 35.9 µM (inactive)
COCC(=O)NC1CCN(CC(=O)Nc2ccc(OC)cc2[N+](=O)[O-])CC1	> 35.9 µM (inactive)
Cc1cccc(NC(=O)COC(=O)Cc2cccs2)c1C	> 35.9 µM (inactive)
Cc1cc(Br)ccc1NC(=O)CN1C(=O)C2CC=CCC2C1=O (stereo not given)	27.8 µM (inactive)
CCOc1ccc(NC(=O)CN2CCN(CC(=O)Nc3ccc(OC)cc3)CC2)cc1	> 35.9 µM (inactive)
CCOc1ccc(OCCN2C(=O)NC(Cc3c[nH]c4ccccc34)C2=O)cc1 (stereo not given)	> 35.9 µM (inactive)
CCc1c(C)nc(SCC(=O)Nc2ccc3c(c2)OCCO3)[nH]c1=O	> 35.9 µM (inactive)
COc1ccc(-n2c(N)c(C(=O)NCc3cccnc3)sc2=S)cc1	> 35.9 µM (inactive)
Cc1cc(=O)oc2c(C)c(OCC(=O)NC3CC(C)(C)NC(C)(C)C3)ccc12	> 35.9 µM (inactive)

SMILES	IC50
COc1ccc(CCNC(=O)COC(=O)c2cc(Cl)nc(Cl)c2)cc1	> 35.9 µM (inactive)
COc1ccc(NS(=O)(=O)c2ccc(OCC(=O)N3CCN(C)CC3)cc2)cc1Cl	> 35.9 µM (inactive)
CCOc1ccc(NC(=O)COC(=O)CC2CCCCC2)cc1	> 35.9 µM (inactive)
O=C(COC(=O)CCN1C(=O)C2CC=CCC2C1=O)NCCc1ccc(F)cc1 (stereo not given)	> 35.9 µM (inactive)
COc1ccc(NC(=O)COC(=O)c2c(-c3ccccc3)noc2C)cc1	33.9 µM (inactive)
Cc1ccc(-c2csc(NC(=O)c3ccc([N+](=O)[O-])o3)n2)cc1	> 35.9 µM (inactive)
Cc1ccc(NC(=O)COC(=O)C(NS(=O)(=O)c2ccc(Cl)cc2)C(C)O)cc1C (stereo not given)	> 35.9 µM (inactive)
O=C(CSc1nnc(CNC(=O)c2ccccc2F)o1)Nc1ccc2c(c1)OCCO2	> 35.9 µM (inactive)
CC1SC(C)C(=O)N(CC(=O)Nc2ccc3c(c2)OCO3)C1=O (stereo not given)	> 35.9 µM (inactive)
COc1ccc(CCNC(=O)CSc2ccc(NC(C)=O)cc2)cc1OC	> 35.9 µM (inactive)
COc1ccc(NC(=O)CS(=O)(=O)c2ccc(C)cc2)c(OC)c1	> 35.9 µM (inactive)
Cc1sc(NC(=O)C(C)C)c(C(=O)Nc2ccccc2)c1C	> 35.9 µM (inactive)
CCCc1cc(=O)oc2cc(OCC(=O)NCc3ccccn3)ccc12	> 35.9 µM (inactive)
COC(=O)c1ccc(NC(=O)CN2CCN(c3ccc(Cl)cc3)CC2)cc1	> 35.9 µM (inactive)
CCCc1cc(=O)oc2c(C)c(OCC(=O)NCCN3CCOCC3)ccc12	> 35.9 µM (inactive)
O=C(Nc1ccccc1)c1oc2ccccc2c1NC(=O)C1CC1	> 35.9 µM (inactive)
O=C(Nc1ccc(Br)cn1)c1ccc([N+](=O)[O-])o1	> 35.9 µM (inactive)
N#CCSc1ccccc1NC(=O)CN1C(=O)C2CC=CCC2C1=O (stereo not given)	> 35.9 µM (inactive)
CN1CCN(c2ccc(S(=O)(=O)N3CCCCC3)cc2NC(=O)COc2ccc([N+](=O)[O-])cc2)CC1	> 35.9 µM (inactive)
COC(=O)c1ccc(NC(=O)CSc2ccc(-c3ccccn3)nn2)cc1	> 35.9 µM (inactive)
Cc1cc(C)c2sc(NC(=O)c3ccc([N+](=O)[O-])o3)nc2c1	> 35.9 µM (inactive)
CCOc1ccc(NC(=O)CSc2nccn(-c3ccc4c(c3)OCCO4)c2=O)cc1	> 35.9 µM (inactive)
O=C(Nc1nc2c(Cl)cccc2s1)c1ccc([N+](=O)[O-])o1	> 35.9 µM (inactive)

Reference: PubChem BioAssay AID651975 (The Scripps Research Institute Molecular Screening Center, 2013)
